Compound: CN(C)C(=N)NC(=N)N [Metformin] + CC(=O)c1c(C)c2cnc(Nc3ccc(N4CCNCC4)cn3)nc2n(C2CCCC2)c1=O [Palbociclib] (partner 0.5 µM)
Assay: relative viability (nuclei count vs DMSO), 5 days (fraction); higher = more cells survive
Details: first compound 10 µM
Summary of the method: (§1)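 A single step with final 0.05% Triton X-100, 1% formaldehyde and 1 ug/ml Hoechst fixed the cells and stained nuclei 5 days after treatment. Lung cancer cell lines in 1536-well plates had been treated by pin tool the day after seeding with one drug alone or a fixed anchor-drug dose plus five library-drug doses (not always all listed) in √10 steps, and nuclei were counted on 4× images. Relative viability is the ratio of nuclei in treated wells to nuclei in vehicle wells, taken as the median of duplicate plates.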

Cell Line | relative viability
NCI-H2347 | 0.443
NCI-H3122 | 0.174
PC-3 [JPC-3] | 0.444
PC-14 | 0.533
RERF-LC-KJ | 0.907
SK-LU-1 | 0.358
SK-MES-1 | 0.248
SW 900 | 0.542
SW 1573 | 0.378
UMC-11 | 0.336

Same assay, conditions: first compound 31.62 µM

Cell Line | relative viability
NCI-H2342 | 0.681
NCI-H2347 | 0.453
NCI-H2405 | 0.498
NCI-H3122 | 0.188
PC-3 [JPC-3] | 0.466
PC-14 | 0.586
RERF-LC-KJ | 1.04
SK-LU-1 | 0.388
SK-MES-1 | 0.205
SW 900 | 0.536
SW 1573 | 0.364
UMC-11 | 0.349

Same assay, conditions: first compound 100 µM

Cell Line | relative viability
NCI-H2342 | 0.548
NCI-H2347 | 0.404
NCI-H2405 | 0.485
NCI-H3122 | 0.228
PC-14 | 0.547
RERF-LC-KJ | 0.896
SK-LU-1 | 0.365
SK-MES-1 | 0.266
SW 1573 | 0.321
UMC-11 | 0.333

Same assay, conditions: first compound 316.23 µM

Cell Line | relative viability
NCI-H2342 | 0.522
NCI-H2347 | 0.382
NCI-H2405 | 0.487
NCI-H3122 | 0.191
PC-3 [JPC-3] | 0.46
PC-14 | 0.461
RERF-LC-KJ | 0.823
SK-LU-1 | 0.358
SK-MES-1 | 0.204
SW 900 | 0.497
SW 1573 | 0.252
UMC-11 | 0.311

Same assay, conditions: first compound 1000 µM

Cell Line | relative viability
NCI-H2342 | 0.519
NCI-H2347 | 0.408
NCI-H2405 | 0.344
NCI-H3122 | 0.184
PC-3 [JPC-3] | 0.503
PC-14 | 0.539
RERF-LC-KJ | 0.993
SK-LU-1 | 0.367
SK-MES-1 | 0.232
SW 900 | 0.578
SW 1573 | 0.264
UMC-11 | 0.341

Compound: CN(C)C(=N)NC(=N)N [Metformin] + COc1cccc2cc(-c3nc([C@H]4CC[C@H](C(=O)O)CC4)n4ncnc(N)c34)[nH]c12 [OSI-027] (partner 0.5 µM)
Assay: as above
Details: first compound 10 µM
Summary of the method: as §1

Cell Line | relative viability
NCI-H2342 | 0.538
NCI-H2347 | 0.416
NCI-H2405 | 0.567
NCI-H3122 | 0.672
PC-3 [JPC-3] | 0.599
PC-14 | 0.648
RERF-LC-KJ | 0.521
SK-LU-1 | 0.32
SK-MES-1 | 0.446
SW 900 | 0.597
SW 1573 | 0.68
UMC-11 | 0.594

Same assay, conditions: first compound 31.62 µM

Cell Line | relative viability
NCI-H2342 | 0.617
NCI-H2347 | 0.486
NCI-H2405 | 0.573
NCI-H3122 | 0.851
PC-3 [JPC-3] | 0.635
PC-14 | 0.929
RERF-LC-KJ | 0.503
SK-LU-1 | 0.389
SK-MES-1 | 0.551
SW 900 | 0.781
SW 1573 | 0.756
UMC-11 | 0.549

Same assay, conditions: first compound 100 µM

Cell Line | relative viability
NCI-H2342 | 0.55
NCI-H2405 | 0.608
NCI-H3122 | 0.574
PC-3 [JPC-3] | 0.638
PC-14 | 0.657
RERF-LC-KJ | 0.492
SK-LU-1 | 0.354
SK-MES-1 | 0.532
SW 900 | 0.617
SW 1573 | 0.611
UMC-11 | 0.539

Same assay, conditions: first compound 316.23 µM

Cell Line | relative viability
NCI-H2342 | 0.549
NCI-H2347 | 0.466
NCI-H2405 | 0.606
NCI-H3122 | 0.419
PC-3 [JPC-3] | 0.615
PC-14 | 0.607
RERF-LC-KJ | 0.394
SK-LU-1 | 0.318
SK-MES-1 | 0.432
SW 900 | 0.544
SW 1573 | 0.4
UMC-11 | 0.426

Same assay, conditions: first compound 1000 µM

Cell Line | relative viability
NCI-H2342 | 0.568
NCI-H2347 | 0.415
NCI-H2405 | 0.559
NCI-H3122 | 0.339
PC-3 [JPC-3] | 0.722
PC-14 | 0.574
RERF-LC-KJ | 0.415
SK-LU-1 | 0.299
SK-MES-1 | 0.454
SW 900 | 0.538
SW 1573 | 0.419
UMC-11 | 0.505

Compound: CN(C)C(=N)NC(=N)N [Metformin] + N=C(N)NC(=N)NCCc1ccccc1 [Phenformin] (partner 250 µM)
Assay: as above
Details: first compound 10 µM
Summary of the method: as §1

Cell Line | relative viability
NCI-H2342 | 0.59
NCI-H2347 | 0.384
NCI-H2405 | 0.379
NCI-H3122 | 0.307
PC-3 [JPC-3] | 0.437
PC-14 | 0.72
RERF-LC-KJ | 0.489
SK-LU-1 | 0.608
SK-MES-1 | 0.504
SW 900 | 0.805
SW 1573 | 0.422
UMC-11 | 0.322

Same assay, conditions: first compound 31.62 µM

Cell Line | relative viability
NCI-H2342 | 0.47
NCI-H2347 | 0.363
NCI-H2405 | 0.362
NCI-H3122 | 0.303
PC-3 [JPC-3] | 0.46
PC-14 | 0.808
RERF-LC-KJ | 0.466
SK-LU-1 | 0.532
SK-MES-1 | 0.534
SW 900 | 0.736
SW 1573 | 0.387
UMC-11 | 0.317

Same assay, conditions: first compound 100 µM

Cell Line | relative viability
NCI-H2342 | 0.494
NCI-H2405 | 0.362
NCI-H3122 | 0.322
PC-3 [JPC-3] | 0.462
PC-14 | 0.77
RERF-LC-KJ | 0.456
SK-LU-1 | 0.501
SK-MES-1 | 0.545
SW 900 | 0.665
SW 1573 | 0.492
UMC-11 | 0.321

Same assay, conditions: first compound 316.23 µM

Cell Line | relative viability
NCI-H2342 | 0.51
NCI-H2347 | 0.422
NCI-H2405 | 0.393
NCI-H3122 | 0.287
PC-3 [JPC-3] | 0.45
PC-14 | 0.659
RERF-LC-KJ | 0.428
SK-LU-1 | 0.424
SK-MES-1 | 0.495
SW 900 | 0.539
SW 1573 | 0.414
UMC-11 | 0.312

Same assay, conditions: first compound 1000 µM

Cell Line | relative viability
NCI-H2342 | 0.572
NCI-H2347 | 0.404
NCI-H2405 | 0.326
NCI-H3122 | 0.288
PC-3 [JPC-3] | 0.478
PC-14 | 0.697
RERF-LC-KJ | 0.499
SK-LU-1 | 0.54
SK-MES-1 | 0.512
SW 900 | 0.862
SW 1573 | 0.364
UMC-11 | 0.351

Compound: N#CC1(c2ccc(NC(=O)c3cccnc3NCc3ccncc3)cc2)CCCC1 [Apatinib] + N=C(N)NC(=N)NCCc1ccccc1 [Phenformin] (partner 250 µM)
Assay: as above
Details: first compound 0.08 µM
Summary of the method: as §1

Cell Line | relative viability
NCI-H2342 | 0.526
NCI-H2347 | 0.476
NCI-H2405 | 0.392
NCI-H3122 | 0.351
PC-3 [JPC-3] | 0.471
PC-14 | 0.445
RERF-LC-KJ | 0.452
SK-LU-1 | 0.607
SK-MES-1 | 0.699
SW 900 | 0.714
SW 1573 | 0.485
UMC-11 | 0.333

Same assay, conditions: first compound 0.253 µM

Cell Line | relative viability
NCI-H2342 | 0.588
NCI-H2347 | 0.307
NCI-H2405 | 0.392
NCI-H3122 | 0.361
PC-3 [JPC-3] | 0.468
PC-14 | 0.793
RERF-LC-KJ | 0.403
SK-LU-1 | 0.594
SK-MES-1 | 0.615
SW 900 | 0.606
SW 1573 | 0.426
UMC-11 | 0.318

Same assay, conditions: first compound 0.8 µM

Cell Line | relative viability
NCI-H2342 | 0.585
NCI-H2347 | 0.443
NCI-H2405 | 0.394
NCI-H3122 | 0.319
PC-3 [JPC-3] | 0.474
RERF-LC-KJ | 0.401
SK-LU-1 | 0.471
SK-MES-1 | 0.616
SW 900 | 0.54
SW 1573 | 0.376
UMC-11 | 0.287

Same assay, conditions: first compound 2.53 µM

Cell Line | relative viability
NCI-H2342 | 0.569
NCI-H2347 | 0.206
NCI-H2405 | 0.33
NCI-H3122 | 0.271
PC-3 [JPC-3] | 0.448
PC-14 | 0.476
RERF-LC-KJ | 0.427
SK-LU-1 | 0.413
SK-MES-1 | 0.574
SW 900 | 0.362
SW 1573 | 0.397
UMC-11 | 0.293

Same assay, conditions: first compound 8 µM

Cell Line | relative viability
NCI-H2342 | 0.577
NCI-H2347 | 0.465
NCI-H2405 | 0.344
NCI-H3122 | 0.298
PC-3 [JPC-3] | 0.46
PC-14 | 0.446
RERF-LC-KJ | 0.454
SK-LU-1 | 0.454
SK-MES-1 | 0.451
SW 900 | 0.425
SW 1573 | 0.387
UMC-11 | 0.266
